# According to patent US20140357577A1, “HIV Membrane Fusion Inhibitors” (priority 2011, published 2014):
# Starred links: 1 amine or outer side, 2 acyl side, 3 side chain; linkers in the order of their positions; H or OH if unused. *: point of attachment. cholesteryl‑oxycarbonylmethyl = CC(C)CCC[C@@H](C)[C@H]1CC[C@H]2[C@@H]3CC=C4C[C@@H](OC(=O)C*)CC[C@]4(C)[C@H]3CC[C@]12C; cholesteryl‑succinyl = CC(C)CCC[C@@H](C)[C@H]1CC[C@H]2[C@@H]3CC=C4C[C@@H](OC(=O)CCC(=O)*)CC[C@]4(C)[C@H]3CC[C@]12C; Suc = O=C(CCC(=O)[*:2])[*:1]; Hexanoyl = CCCCCC(=O)*; Pentanoyl = CCCCC(=O)*; Butyryl = CCCC(=O)*
# Experiments:
# [1] = system: HIV mutant virus strain HXB2D with mutation Q40H in the gp41 gene; assay: Standard AVE, HXB2D site directed mutant Q40H; format: cell-based, HIV-1; conditions: fold change vs wild type strain HXB2D
# Text: • Standard Anti-Viral-Experiment “AVE” (wild type HIV strain IIIB+HIV strain HXB2D side directed mutants V38A and Q40H)
# The HIV-1 replication assay measures virus replication (HIV wild type virus strain 111B or HXB2D, or a HIV mutant virus strain HXB2D with mutation V38A or Q40H in the gp41 gene) as an induction of enhanced green fluorescent protein (EGFP) expression. The indicator MT4-LTR-EGFP cells contain an EGFP gene under the control of the HIV-1 LTR promoter sequence. Successful HIV-1 infection results in viral Tat protein expression and subsequent induction of EGFP expression. Compounds/peptides inhibiting HIV-1 infection are expected to reduce EGFP expression as compared to the untreated HIV-infected control.
# Serial 4-fold dilutions of test compounds/peptides were mixed with HIV-1 (IIIB, HXB2D, or a HXB2D mutant virus (V38A or Q40H)) and MT4-LTR-EGFP cells and incubated at 37° C. After 3 days, the wells were examined for EGFP expression using an argon laser-scanning microscope. The effective compound/peptide concentration inhibiting 50% of the virus-induced EGFP signal (EC50) was determined by linear interpolation of the EGFP signal vs. logarithm of the compound concentration; (T20, C34 and Sifuvirtide were added as reference compounds). For the V38A and Q40H mutant viruses, results were reported as a fold change in EC50, as compared with a drug-susceptible wild type strain HXB2D, which forms the backbone of the mutant virus. • Standard AVE (50% Human Serum)
# HIV-IIIB + 50% HS = assay: Standard AVE (50% Human Serum), HIV-1 replication assay in MT4-LTR-EGFP cells; format: cell-based; conditions: fold change vs EC50 in the assay without human serum
# Text: The HIV-1 replication assay (with 50% human serum) measures virus replication as an induction of enhanced green fluorescent protein (EGFP) expression, in the presence of 50% human serum. The indicator MT4-LTR-EGFP cells contain an EGFP gene under the control of the HIV-1 LTR promoter sequence. Successful HIV-1 infection results in viral Tat protein expression and subsequent induction of EGFP expression. Compounds/peptides inhibiting HIV-1 infection are expected to reduce EGFP expression as compared to the untreated HIV-infected control. Compounds/peptides binding to human serum are expected to have a reduced activity for inhibiting the virus in the assay.
# Serial 4-fold dilutions of test compounds/peptides were mixed with HIV-1 and MT4-LTR-EGFP cells and incubated at 37° C., in the presence of 50% human serum. After 3 days, the wells were examined for EGFP expression using an argon laser-scanning microscope. The effective compound/peptide concentration inhibiting 50% of the virus-induced EGFP signal (EC50) was determined by linear interpolation of the EGFP signal vs. logarithm of the compound concentration; T20, C34 and Sifuvirtide were added as reference compounds. Results were reported as a fold change in EC50, as compared with the acquired EC50 in the assay without human serum.
# [2] = system: HIV wild type virus strain IIIB; assay: Standard Anti-Viral-Experiment (AVE), HIV-1 replication assay in MT4-LTR-EGFP cells, wild type IIIB; format: cell-based; conditions: 3 days, EGFP signal
# How it was run: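 MT4-LTR-EGFP cells infected with HIV-1 IIIB, HXB2D or HXB2D gp41 mutants V38A/Q40H alongside serial 4-fold compound dilutions, 3 days at 37° C. EGFP read by laser-scanning microscopy; EC50 by linear interpolation against log concentration. Mutant results given as fold change in EC50 versus wild-type HXB2D.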
Substance,HIV-HXB2D Q40H mutant (fold change in EC50) [1],HIV-IIIB + 50% HS (Fold change in EC50) (HIV-IIIB + 50% HS),EC50 [2] [nM]
AC-ACYLACIEALIRRAQEQQEKNEAALR-NH2 [Peptide 51],93,1,3
AC-ECYLACIEALIRAAQEQQEKNEAALR-NH2 [Peptide 45],64,1,–
ANYAALIEALIRAAQEQQEKNEAALR [Peptide 2],>28,1,77
ANYLALIEELIRAAQEQQEKNEAALR [Peptide 10],>695,0.4,4
Ac-ACYAACIEALIRAAQEQQEKNEAALR-NH2 [Peptide 66],231,2,3
Ac-ACYAACIEALIRAAQEQQEKNEAALR-NH2 [Peptide 68],>67,2,–
Ac-ACYLACIEALIRKAQEQQEKNEAALR-NH2 [Peptide 48],62,1,3
Ac-ANYLALIEALIRAAQEQQEKNEAALRGSGK(cholesteryl-succinyl)-NH2 (Ac-ANYLALIEALIRAAQEQQEKNEAALRGSGK(cholesteryl‑succinyl)-NH2; SMILES CC[C@H](C)[C@H](NC(=O)[C@H](CC(C)C)NC(=O)[C@H](C)NC(=O)[C@H](CCC(=O)O)NC(=O)[C@@H](NC(=O)[C@H](CC(C)C)NC(=O)[C@H](C)NC(=O)[C@H](CC(C)C)NC(=O)[C@H](Cc1ccc(O)cc1)NC(=O)[C@H](CC(N)=O)NC(=O)[C@H](C)NC(C)=O)[C@@H](C)CC)C(=O)N[C@@H](CCCNC(=N)N)C(=O)N[C@@H](C)C(=O)N[C@@H](C)C(=O)N[C@@H](CCC(N)=O)C(=O)N[C@@H](CCC(=O)O)C(=O)N[C@@H](CCC(N)=O)C(=O)N[C@@H](CCC(N)=O)C(=O)N[C@@H](CCC(=O)O)C(=O)N[C@@H](CCCCN)C(=O)N[C@@H](CC(N)=O)C(=O)N[C@@H](CCC(=O)O)C(=O)N[C@@H](C)C(=O)N[C@@H](C)C(=O)N[C@@H](CC(C)C)C(=O)N[C@@H](CCCNC(=N)N)C(=O)NCC(=O)N[C@@H](CO)C(=O)NCC(=O)N[C@@H](CCCCNC(=O)CCC(=O)O[C@H]1CC[C@@]2(C)C(=CC[C@H]3[C@@H]4CC[C@H]([C@H](C)CCCC(C)C)[C@@]4(C)CC[C@@H]32)C1)C(N)=O) [Peptide 69],11,–,0.3
Ac-ECYAACIEELIRKAQEQQEKNEAALR-NH2 [Peptide 53],>164,0.3,21
Ac-ECYLACIEELIRKAQEQQEKNEAALR-NH2 [Peptide 37],108,0.7,–
Ac-ECYLRCIEALIRAAQEQQEKNEAALR-NH2 [Peptide 50],33,2,2
Butanoyl-ECYLACIEELIRKAQEQQEKNEAALR-NH2 (Butyryl-ECYLACIEELIRKAQEQQEKNEAALR-NH2; cysteine pairing not given here) [Peptide 40],84,1,1
ENYLALIEALIRAAQEQQEKNEAALL [Peptide 9],1196,0.4,3
ENYLALIEALIRAAQEQQEKNEAALR [Peptide 8],900,0.4,2
Hexanoyl-ECYLACIEELIRKAQEQQEKNEAALR-NH2 (cysteine pairing not given here) [Peptide 42],27,–,1
Pentanoyl-ECYLACIEALIRAAQEQQEKNEAALR-NH2 (cysteine pairing not given here) [Peptide 38],45,–,1
Pentanoyl-ECYLACIEELIRKAQEQQEKNEAALR-NH2 (cysteine pairing not given here) [Peptide 41],42,–,1
"SWETWEREIENYTRQIYRILEESQEQQDRNERDLLE [Sifuvirtide, reference compound]",2,–,2
Suc-ANYLALIEALIRAAQEQQEKNEAALRGSGC(cholesteryl-oxycarbonylmethyl)-NH2 (Suc-ANYLALIEALIRAAQEQQEKNEAALRGSGC(cholesteryl‑oxycarbonylmethyl)-NH2; SMILES CC[C@H](C)[C@H](NC(=O)[C@H](CC(C)C)NC(=O)[C@H](C)NC(=O)[C@H](CCC(=O)O)NC(=O)[C@@H](NC(=O)[C@H](CC(C)C)NC(=O)[C@H](C)NC(=O)[C@H](CC(C)C)NC(=O)[C@H](Cc1ccc(O)cc1)NC(=O)[C@H](CC(N)=O)NC(=O)[C@H](C)NC(=O)CCC(=O)O)[C@@H](C)CC)C(=O)N[C@@H](CCCNC(=N)N)C(=O)N[C@@H](C)C(=O)N[C@@H](C)C(=O)N[C@@H](CCC(N)=O)C(=O)N[C@@H](CCC(=O)O)C(=O)N[C@@H](CCC(N)=O)C(=O)N[C@@H](CCC(N)=O)C(=O)N[C@@H](CCC(=O)O)C(=O)N[C@@H](CCCCN)C(=O)N[C@@H](CC(N)=O)C(=O)N[C@@H](CCC(=O)O)C(=O)N[C@@H](C)C(=O)N[C@@H](C)C(=O)N[C@@H](CC(C)C)C(=O)N[C@@H](CCCNC(=N)N)C(=O)NCC(=O)N[C@@H](CO)C(=O)NCC(=O)N[C@@H](CSCC(=O)O[C@H]1CC[C@@]2(C)C(=CC[C@H]3[C@@H]4CC[C@H]([C@H](C)CCCC(C)C)[C@@]4(C)CC[C@@H]32)C1)C(N)=O) [Peptide 35],24,–,0.3
Suc-ECYLACIEELIRKAQEQQEKNEAALR-NH2 (cysteine pairing not given here) [Peptide 90],65,–,1
Suc-ENYLALIEELIRKAQEQQEKNEAALR-NH2 (SMILES CC[C@H](C)[C@H](NC(=O)[C@H](CC(C)C)NC(=O)[C@H](C)NC(=O)[C@H](CC(C)C)NC(=O)[C@H](Cc1ccc(O)cc1)NC(=O)[C@H](CC(N)=O)NC(=O)[C@H](CCC(=O)O)NC(=O)CCC(=O)O)C(=O)N[C@@H](CCC(=O)O)C(=O)N[C@@H](CCC(=O)O)C(=O)N[C@@H](CC(C)C)C(=O)N[C@H](C(=O)N[C@@H](CCCNC(=N)N)C(=O)N[C@@H](CCCCN)C(=O)N[C@@H](C)C(=O)N[C@@H](CCC(N)=O)C(=O)N[C@@H](CCC(=O)O)C(=O)N[C@@H](CCC(N)=O)C(=O)N[C@@H](CCC(N)=O)C(=O)N[C@@H](CCC(=O)O)C(=O)N[C@@H](CCCCN)C(=O)N[C@@H](CC(N)=O)C(=O)N[C@@H](CCC(=O)O)C(=O)N[C@@H](C)C(=O)N[C@@H](C)C(=O)N[C@@H](CC(C)C)C(=O)N[C@@H](CCCNC(=N)N)C(N)=O)[C@@H](C)CC) [Peptide 19],151,–,1
